{"source": "patent US7517949B2", "about": "“Livin-derived peptides, compositions and uses thereof” (Hadasit Medical Research Services & Development Ltd., priority 2003, dated 2009)", "type_in_all_cases": "cell-based, human", "key": {"LB33 Mel B1 cells": {"tested_on": "LB33 Mel B1 cells", "experiment": "Etoposide-induced apoptosis, nuclear morphology, LB33 Mel B1", "conditions": "Mel B1, high levels of Livin; etoposide 15 μg/ml", "description": "(§1) (b) Melanoma cell lines LB33 Mel A1 and B1 were treated with etoposide (15 μg/ml). Apoptosis rate was determined by nuclear morphology, as described.\n(§2) Nuclear morphology was visualized using acridin orange (Sigma) staining as described [Loo, D. T. et al. (1998) Methods Cell Biol., 57: 251-264]. […] The percentage of apoptotic to viable cells was counted by fluorescence microscopy and 500 cells were scored for each sample. Flow cytometry analysis of the apoptotic cells was done using two different methods. In the Sub-G1 assay the cells were harvested, washed with PBS and fixed using 100% methanol. […] Cells transfected with a GFP-containing plasmid were analyzed using Annexin-V-Cy5 and PI staining according to the manufacturer instructions (MBL, Japan). In stably transfected cultures with a rate of GFP-positive cells higher than 95%, all cells were analyzed for apoptosis. In transiently transfected cells, GFP expression was first analyzed (FL-1), and only GFP-positive cells were analyzed for Annexin-V-Cy5 (FL-4) and PI (FL-3) staining.\n(§3) LB33 A1 and B1 are two metastatic melanoma cell lines derived from the same patient before and after vaccination with autologous melanoma cells [Ikeda, H. et al. (1997) Immunity 6: 199-208; Lehmann, F. et al. (1995) Eur. J. Immunol. […] PARP was detected in all samples, confirming similar protein content."}, "LB33 Mel A1 cells": {"tested_on": "LB33 Mel A1 cells", "experiment": "Etoposide-induced apoptosis, nuclear morphology, LB33 Mel A1", "conditions": "Mel A1, no Livin expression; etoposide 15 μg/ml", "description": "as §1, §2, §3"}, "primary melanoma cells": {"tested_on": "primary melanoma cells", "experiment": "Etoposide-induced apoptosis in primary melanoma cultures (nuclear morphology)", "conditions": "etoposide 15 μg/ml, 24 and 48 hours", "description": "FIG. 8b: Six samples were selected according to the level of Livin expression (high: 5556, 55112, moderate: 5524, 55164, or undetectable: 5530, 5533). […] Apoptosis rate was determined by nuclear morphology, as described. The data shown are representative of three independent experiments, which were also confirmed by flow cytometry, using sub-G1 assay.\nPrimary melanoma cells were derived and maintained as described [Lotem, M. et al. (2002) Br J Cancer, 86: 1534-1539].\nNuclear morphology was visualized using acridin orange (Sigma) staining as described [Loo, D. T. et al. (1998) Methods Cell Biol., 57: 251-264]. […] The percentage of apoptotic to viable cells was counted by fluorescence microscopy and 500 cells were scored for each sample. Flow cytometry analysis of the apoptotic cells was done using two different methods. In the Sub-G1 assay the cells were harvested, washed with PBS and fixed using 100% methanol. Following an overnight incubation at −20° C., cells were re-hydrated with PBS for 30 minutes on ice, and then resuspended in PBS with RNase A (50 μg/ml) and stained with Propidium Iodide (PI) (Sigma) at a final concentration of 5 μg/ml. Flow cytometry analysis was performed in FL2 histogram. Cells transfected with a GFP-containing plasmid were analyzed using Annexin-V-Cy5 and PI staining according to the manufacturer instructions (MBL, Japan). In stably transfected cultures with a rate of GFP-positive cells higher than 95%, all cells were analyzed for apoptosis. In transiently transfected cells, GFP expression was first analyzed (FL-1), and only GFP-positive cells were analyzed for Annexin-V-Cy5 (FL-4) and PI (FL-3) staining.\nIn order to determine whether Livin expression renders the melanoma cells resistant to chemotherapy, six melanoma samples were selected, according to their Livin expression. […] After 24 and 48 hours, cells were harvested and the percent of apoptosis determined in each sample by nuclear morphology (FIG. 8b). […]"}}}
{"smiles": "COc1cc([C@@H]2c3cc4c(cc3[C@@H](O[C@@H]3O[C@@H]5CO[C@@H](C)O[C@H]5[C@H](O)[C@H]3O)[C@H]3COC(=O)[C@H]23)OCO4)cc(OC)c1O", "note": "[etoposide]", "values": [{"measurement": "response to etoposide (apoptosis by nuclear morphology)", "setting": "LB33 Mel B1 cells", "value": "completely resistant"}, {"measurement": "response to etoposide (apoptosis by nuclear morphology)", "setting": "LB33 Mel A1 cells", "value": "rapidly underwent apoptosis"}, {"measurement": "moderate resistance (percent of apoptosis)", "setting": "primary melanoma cells; samples 5524 and 55164, intermediate Livin", "value": "15-25%"}, {"measurement": "apoptosis rate", "setting": "primary melanoma cells; samples 5533 and 5530, no Livin expression", "value": "up to 55%"}, {"measurement": "resistance to etoposide", "setting": "primary melanoma cells; samples 5556 and 55112, high Livin expression", "value": "completely resistant"}]}
